{"source": "patent US11053204B2", "about": "“Pyrimidinyloxy benzene derivatives as herbicides” (FMC Corporation, priority 2015, dated 2021)", "type_in_all_cases": "in vivo", "key": {"[1]": {"test_system": "galium (catchweed bedstraw, Galium aparine)", "assay": "Test C preemergence, plant response rating"}, "[2]": {"test_system": "pigweed (Amaranthus retroflexus)", "assay": "Test C preemergence, plant response rating", "settings": "Preemergence"}, "[3]": {"test_system": "barnyardgrass (Echinochloa crus-galli)", "assay": "Test C postemergence, plant response rating", "settings": "for Plant response rating, Barnyardgrass: scale 0 to 100; for Barnyardgrass plant response rating: scale 0 to 100 (0 no effect, 100 complete control)", "method_in_brief": "(§1)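 Pre-emergence: seeds sown in loam soil–sand blend or silt loam and sprayed with test chemicals in a non-phytotoxic solvent mixture with surfactant. Post-emergence: plants 2 to 18 cm (1- to 4-leaf stage) in peat-based potting medium, same formulation. Greenhouse 13 to 15 d; visual rating 0 (no effect) to 100 (complete control) versus controls.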"}, "[4]": {"test_system": "blackgrass (Alopecurus myosuroides)", "assay": "Test C postemergence, plant response rating", "settings": "for Plant response rating, Blackgrass: scale 0 to 100; for Blackgrass plant response rating: scale 0 to 100 (0 no effect, 100 complete control)", "method_in_brief": "as §1"}, "corn (Zea mays)": {"test_system": "corn (Zea mays)", "assay": "Test C postemergence, plant response rating", "settings": "for Corn plant response rating: scale 0 to 100 (0 no effect, 100 complete control)", "method_in_brief": "as §1"}, "[5]": {"test_system": "crabgrass, large (large crabgrass, Digitaria sanguinalis)", "assay": "Test C postemergence, plant response rating", "settings": "for Crabgrass, Large plant response rating: scale 0 to 100 (0 no effect, 100 complete control)", "method_in_brief": "as §1"}, "[6]": {"test_system": "foxtail, giant (giant foxtail, Setaria faberii)", "assay": "Test C postemergence, plant response rating", "settings": "for Foxtail, Giant plant response rating: scale 0 to 100 (0 no effect, 100 complete control)", "method_in_brief": "as §1"}, "[7]": {"test_system": "galium (catchweed bedstraw, Galium aparine)", "assay": "Test C postemergence, plant response rating", "settings": "for Galium plant response rating: scale 0 to 100 (0 no effect, 100 complete control)", "method_in_brief": "as §1"}, "[8]": {"test_system": "lambsquarters (Chenopodium album)", "assay": "Test C postemergence, plant response rating", "settings": "for Lambsquarters plant response rating: scale 0 to 100 (0 no effect, 100 complete control)", "method_in_brief": "as §1"}, "[9]": {"test_system": "nutsedge, yellow (yellow nutsedge, Cyperus esculentus)", "assay": "Test C postemergence, plant response rating", "settings": "for Nutsedge, Yellow plant response rating: scale 0 to 100 (0 no effect, 100 complete control)", "method_in_brief": "as §1"}, "[10]": {"test_system": "oat, wild (wild oat Avena fatua)", "assay": "Test C postemergence, plant response rating", "settings": "for Oat, Wild plant response rating: scale 0 to 100 (0 no effect, 100 complete control)", "method_in_brief": "as §1"}, "[11]": {"test_system": "oilseed rape (Brassica napus)", "assay": "Test C postemergence, plant response rating", "settings": "for Oilseed Rape plant response rating: scale 0 to 100 (0 no effect, 100 complete control)", "method_in_brief": "as §1"}, "[12]": {"test_system": "ragweed (common ragweed, Ambrosia elatior)", "assay": "Test C postemergence, plant response rating", "settings": "for Ragweed plant response rating: scale 0 to 100 (0 no effect, 100 complete control)", "method_in_brief": "as §1"}, "[13]": {"test_system": "ryegrass, Italian (Italian ryegrass, Lolium multiflorum)", "assay": "Test C postemergence, plant response rating", "settings": "for Ryegrass, Italian plant response rating: scale 0 to 100 (0 no effect, 100 complete control)", "method_in_brief": "as §1"}, "soybean (Glycine max)": {"test_system": "soybean (Glycine max)", "assay": "Test C postemergence, plant response rating", "settings": "for Soybean plant response rating: scale 0 to 100 (0 no effect, 100 complete control)", "method_in_brief": "as §1"}, "[14]": {"test_system": "velvetleaf (Abutilon theophrasti)", "assay": "Test C postemergence, plant response rating", "method_in_brief": "as §1"}, "[15]": {"test_system": "waterhemp (common waterhemp, Amaranthus rudis)", "assay": "Test C postemergence, plant response rating", "method_in_brief": "as §1"}, "[16]": {"test_system": "wheat (winter wheat, Triticum aestivum)", "assay": "Test C postemergence, plant response rating", "method_in_brief": "as §1"}, "[17]": {"settings": "125 g ai/ha, scale 0 to 100 (0 no effect, 100 complete control)"}}, "data": [{"smiles": "N#Cc1cccc(Oc2ncc(Cl)cn2)c1C(=O)OCCC(F)(F)F", "note": "[Compound 30]", "values": [{"measurement": "Plant response rating, Galium", "setting": "[1]; 16 g ai/ha, scale 0 to 100", "value": 80}, {"measurement": "Plant response rating, Galium", "setting": "[1]; 31 g ai/ha, scale 0 to 100", "value": 10}, {"measurement": "Plant response rating, Galium", "setting": "[1]; 62 g ai/ha, scale of 0 to 100", "value": 60}, {"measurement": "Plant response rating, Galium", "setting": "[1]; 125 g ai/ha, scale of 0 to 100", "value": 85}, {"measurement": "Plant response rating, Pigweed", "setting": "[2]; 125 g ai/ha, scale of 0 to 100", "value": 100}, {"measurement": "Plant response rating, Pigweed", "setting": "[2]; 16 g ai/ha, scale 0 to 100", "value": 90}, {"measurement": "Plant response rating, Pigweed", "setting": "[2]; 31 g ai/ha, scale 0 to 100", "value": 95}, {"measurement": "Plant response rating, Pigweed", "setting": "[2]; 62 g ai/ha, scale 0 to 100", "value": 100}]}, {"smiles": "O=C(CCC(F)(F)F)c1c(Br)cccc1Oc1ncc(Cl)cn1", "note": "[Compound 92]", "values": [{"measurement": "Plant response rating, Pigweed", "setting": "[2]; 125 g ai/ha, scale of 0 to 100", "value": 100}, {"measurement": "Plant response rating, Pigweed", "setting": "[2]; 31 g ai/ha, scale 0 to 100", "value": 100}, {"measurement": "Plant response rating, Pigweed", "setting": "[2]; 62 g ai/ha, scale 0 to 100", "value": 100}, {"measurement": "Plant response rating, Barnyardgrass", "setting": "[3]; 16 g ai/ha", "value": 10}, {"measurement": "Plant response rating, Barnyardgrass", "setting": "[3]; 31 g ai/ha", "value": 10}, {"measurement": "Barnyardgrass plant response rating", "setting": "[3]; 62 g ai/ha", "value": 15}, {"measurement": "Barnyardgrass plant response rating", "setting": "[3]; 125 g ai/ha", "value": 20}, {"measurement": "Plant response rating, Blackgrass", "setting": "[4]; 16 g ai/ha", "value": 5}, {"measurement": "Plant response rating, Blackgrass", "setting": "[4]; 31 g ai/ha", "value": 10}, {"measurement": "Blackgrass plant response rating", "setting": "[4]; 62 g ai/ha", "value": 5}, {"measurement": "Blackgrass plant response rating", "setting": "[4]; 125 g ai/ha", "value": 20}, {"measurement": "Plant response rating, Corn", "setting": "corn (Zea mays); 16 g ai/ha, scale of 0 to 100", "value": 10}, {"measurement": "Plant response rating, Corn", "setting": "corn (Zea mays); 31 g ai/ha, scale 0 to 100", "value": 20}, {"measurement": "Corn plant response rating", "setting": "corn (Zea mays); 62 g ai/ha", "value": 15}, {"measurement": "Corn plant response rating", "setting": "corn (Zea mays); 125 g ai/ha", "value": 20}, {"measurement": "Plant response rating, Crabgrass, Large", "setting": "[5]; 16 g ai/ha, scale of 0 to 100", "value": 20}, {"measurement": "Plant response rating, Crabgrass, Large", "setting": "[5]; 31 g ai/ha, scale 0 to 100", "value": 10}, {"measurement": "Crabgrass, Large plant response rating", "setting": "[5]; 62 g ai/ha", "value": 25}, {"measurement": "Crabgrass, Large plant response rating", "setting": "[5]; 125 g ai/ha", "value": 35}, {"measurement": "Plant response rating, Foxtail, Giant", "setting": "[6]; 16 g ai/ha, scale of 0 to 100", "value": 10}, {"measurement": "Plant response rating, Foxtail, Giant", "setting": "[6]; 31 g ai/ha, scale 0 to 100", "value": 20}, {"measurement": "Foxtail, Giant plant response rating", "setting": "[6]; 62 g ai/ha", "value": 25}, {"measurement": "Foxtail, Giant plant response rating", "setting": "[6]; 125 g ai/ha", "value": 50}, {"measurement": "Plant response rating, Galium", "setting": "[7]; 16 g ai/ha, scale of 0 to 100", "value": 80}, {"measurement": "Plant response rating, Galium", "setting": "[7]; 31 g ai/ha, scale 0 to 100", "value": 85}, {"measurement": "Galium plant response rating", "setting": "[7]; 62 g ai/ha", "value": 100}, {"measurement": "Galium plant response rating", "setting": "[7]; 125 g ai/ha", "value": 100}, {"measurement": "Plant response rating, Lambsquarters", "setting": "[8]; 16 g ai/ha, scale of 0 to 100", "value": 40}, {"measurement": "Plant response rating, Lambsquarters", "setting": "[8]; 31 g ai/ha, scale 0 to 100", "value": 60}, {"measurement": "Lambsquarters plant response rating", "setting": "[8]; 62 g ai/ha", "value": 50}, {"measurement": "Lambsquarters plant response rating", "setting": "[8]; 125 g ai/ha", "value": 85}, {"measurement": "Plant response rating, Nutsedge, Yellow", "setting": "[9]; 16 g ai/ha, scale of 0 to 100", "value": 0}, {"measurement": "Plant response rating, Nutsedge, Yellow", "setting": "[9]; 31 g ai/ha, scale 0 to 100", "value": 10}, {"measurement": "Nutsedge, Yellow plant response rating", "setting": "[9]; 62 g ai/ha", "value": 10}, {"measurement": "Nutsedge, Yellow plant response rating", "setting": "[9]; 125 g ai/ha", "value": 20}, {"measurement": "Plant response rating, Oat, Wild", "setting": "[10]; 16 g ai/ha, scale of 0 to 100", "value": 5}, {"measurement": "Plant response rating, Oat, Wild", "setting": "[10]; 31 g ai/ha, scale 0 to 100", "value": 5}, {"measurement": "Oat, Wild plant response rating", "setting": "[10]; 62 g ai/ha", "value": 5}, {"measurement": "Oat, Wild plant response rating", "setting": "[10]; 125 g ai/ha", "value": 5}, {"measurement": "Plant response rating, Oilseed Rape", "setting": "[11]; 16 g ai/ha, scale of 0 to 100", "value": 5}, {"measurement": "Plant response rating, Oilseed Rape", "setting": "[11]; 31 g ai/ha, scale 0 to 100", "value": 50}, {"measurement": "Oilseed Rape plant response rating", "setting": "[11]; 62 g ai/ha", "value": 50}, {"measurement": "Oilseed Rape plant response rating", "setting": "[11]; 125 g ai/ha", "value": 70}, {"measurement": "Plant response rating, Ragweed", "setting": "[12]; 16 g ai/ha, scale of 0 to 100", "value": 35}, {"measurement": "Plant response rating, Ragweed", "setting": "[12]; 31 g ai/ha, scale 0 to 100", "value": 40}, {"measurement": "Ragweed plant response rating", "setting": "[12]; 62 g ai/ha", "value": 60}, {"measurement": "Ragweed plant response rating", "setting": "[12]; 125 g ai/ha", "value": 70}, {"measurement": "Plant response rating, Ryegrass, Italian", "setting": "[13]; 16 g ai/ha, scale of 0 to 100", "value": 10}, {"measurement": "Plant response rating, Ryegrass, Italian", "setting": "[13]; 31 g ai/ha, scale 0 to 100", "value": 15}, {"measurement": "Ryegrass, Italian plant response rating", "setting": "[13]; 62 g ai/ha", "value": 10}, {"measurement": "Ryegrass, Italian plant response rating", "setting": "[13]; 125 g ai/ha", "value": 30}, {"measurement": "Plant response rating, Soybean", "setting": "soybean (Glycine max); 16 g ai/ha, scale of 0 to 100", "value": 30}, {"measurement": "Plant response rating, Soybean", "setting": "soybean (Glycine max); 31 g ai/ha, scale 0 to 100", "value": 40}, {"measurement": "Soybean plant response rating", "setting": "soybean (Glycine max); 62 g ai/ha", "value": 70}, {"measurement": "Soybean plant response rating", "setting": "soybean (Glycine max); 125 g ai/ha", "value": 75}, {"measurement": "Plant response rating, Velvetleaf", "setting": "[14]; 16 g ai/ha, scale of 0 to 100", "value": 35}, {"measurement": "Plant response rating, Velvetleaf", "setting": "[14]; 31 g ai/ha, scale 0 to 100", "value": 50}, {"measurement": "Velvetleaf plant response rating", "setting": "[14]; [17]", "value": 85}, {"measurement": "Plant response rating, Waterhemp", "setting": "[15]; 16 g ai/ha, scale of 0 to 100", "value": 80}, {"measurement": "Plant response rating, Waterhemp", "setting": "[15]; 31 g ai/ha, scale 0 to 100", "value": 85}, {"measurement": "Waterhemp plant response rating", "setting": "[15]; [17]", "value": 100}, {"measurement": "Plant response rating, Wheat", "setting": "[16]; 16 g ai/ha, scale of 0 to 100", "value": 0}, {"measurement": "Plant response rating, Wheat", "setting": "[16]; 31 g ai/ha, scale 0 to 100", "value": 0}, {"measurement": "Wheat plant response rating", "setting": "[16]; [17]", "value": 10}]}]}
